Here are results for one molecule from US20220241203A1, “METHOD FOR PRODUCTION OF LIPOSOMES” (UNIVERSIDADE DO MINHO, priority 2019, published 2022).

The nature of the data set: Encapsulation efficiency of the agent in liposomes (free agent removed by gel filtration). The format is physicochemical. The method, then:
In an embodiment, liposomes composed of DOPE/Cholesterol/DSPE-MPEG (54:36:10, molar ratio) were prepared using the ethanolic injection method. Briefly, lipids (DOPE, cholesterol and DSPE-MPEG) were dissolved in ethanol (5% in the classic ethanol injection method; 50% in the new proposed pre-concentration method, relative to the initial 20% aqueous phase) at 60° C.
The solution was injected under stirring to an aqueous solution (phosphate buffered saline, PBS). This process is done at 70° C., remaining during the necessary time to evaporate all the ethanol volume.
In the classic ethanolic injection method liposomes are extruded to reduce their size. In the pre-concentration method, after ethanol evaporation or tangential flow filtration, liposomal dispersion is diluted five times in PBS (remaining 80% of volume is added). The free therapeutic or imaging agent that was not incorporated into liposomes was removed from the samples after passage through a gel filtration chromatography column (GE Healthcare) with 5 kDa cut-off (PD-10 Desalting Columns containing 8.3 mL of Sephadex G-25 Medium). Hydrophilic therapeutic or imaging agents (e.g. methotrexate and doxorubicin) are present in this aqueous phase in the classic ethanol injection method and in the new proposed pre-concentration method. […]
In general terms: SEC sorts molecules by how far they enter the pores of the column.

Take `CN(Cc1cnc2nc(N)nc(N)c2n1)c1ccc(C(=O)N[C@@H](CCC(=O)O)C(=O)O)cc1` [methotrexate]: the “amount of the agent used that was encapsulated” value (before optimization of the production method) is 3-5%. Under “pre-concentration method, 1:1 ethanol:aqueous phase, 2 steps”, the encapsulation efficiencies was ~40%.
